pEC50: −log10 of the molar value.

This is an account of results in article PMC2705655, “The Nicotinic Acetylcholine Receptors of the Parasitic Nematode Ascaris suum: Formation of Two Distinct Drug Targets by Varying the Relative Expression Levels of Two Subunits” (PLoS Pathogens, 2009).

What all share (test): two-electrode voltage clamp, Xenopus oocytes
Holding throughout (type): cell-based
On the technique in general: Two-electrode voltage clamp holds a large cell at a set potential and records current.

The target in assay [1] is T1, 5:1 Asu-unc-38:Asu-unc-29 receptor, putative (Asu-UNC-38)3(Asu-UNC-29)2, N-subtype nAChR (Ascaris suum, UniProt A7UFK6+A9XWS2).
T1 construct: full-length cDNAs of both subunits in pT7TS, cRNAs co-injected 5:1 into Xenopus oocytes; no tag
T1 sequence (A7UFK6 22-513): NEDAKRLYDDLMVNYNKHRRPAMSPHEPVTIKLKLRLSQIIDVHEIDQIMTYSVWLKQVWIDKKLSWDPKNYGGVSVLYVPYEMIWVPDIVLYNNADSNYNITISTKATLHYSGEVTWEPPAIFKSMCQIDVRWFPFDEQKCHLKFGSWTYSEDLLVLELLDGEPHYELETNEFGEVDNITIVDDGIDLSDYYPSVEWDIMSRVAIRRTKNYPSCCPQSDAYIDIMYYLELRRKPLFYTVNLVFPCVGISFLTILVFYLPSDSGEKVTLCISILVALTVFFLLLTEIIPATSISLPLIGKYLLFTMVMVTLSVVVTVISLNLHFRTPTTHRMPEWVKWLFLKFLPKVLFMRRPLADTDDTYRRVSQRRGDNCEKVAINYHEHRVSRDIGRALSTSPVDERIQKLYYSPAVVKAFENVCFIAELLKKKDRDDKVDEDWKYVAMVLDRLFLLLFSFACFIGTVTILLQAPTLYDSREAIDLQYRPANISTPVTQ
T1 sequence (A9XWS2 27-513): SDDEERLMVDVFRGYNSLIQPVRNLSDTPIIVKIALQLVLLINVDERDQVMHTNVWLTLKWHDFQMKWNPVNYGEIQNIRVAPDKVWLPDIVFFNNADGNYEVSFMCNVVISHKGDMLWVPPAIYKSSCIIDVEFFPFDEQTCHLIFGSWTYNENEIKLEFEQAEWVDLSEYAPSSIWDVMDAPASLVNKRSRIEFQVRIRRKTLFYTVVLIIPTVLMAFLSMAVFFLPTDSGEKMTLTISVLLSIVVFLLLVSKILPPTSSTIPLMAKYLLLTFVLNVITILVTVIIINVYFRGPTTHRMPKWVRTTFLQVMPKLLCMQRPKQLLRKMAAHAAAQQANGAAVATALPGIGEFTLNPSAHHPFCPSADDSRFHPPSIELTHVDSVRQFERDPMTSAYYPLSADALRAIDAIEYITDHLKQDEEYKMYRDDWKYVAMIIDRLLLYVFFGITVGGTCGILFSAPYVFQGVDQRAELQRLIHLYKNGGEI
The source says: two-electrode voltage clamp, Xenopus oocytes on 5:1 Asu-unc-38:Asu-unc-29 receptor, putative (Asu-UNC-38)3(Asu-UNC-29)2, N-subtype nAChR

Assay [2] deals with T2, 1:5 Asu-unc-38:Asu-unc-29 receptor, putative (Asu-UNC-38)2(Asu-UNC-29)3, L-subtype nAChR (Ascaris suum, UniProt A7UFK6+A9XWS2).
T2 construct: full-length cDNAs of both subunits in pT7TS, cRNAs co-injected 1:5 into Xenopus oocytes; no tag
T2 sequence (A7UFK6 22-513): T1 sequence (A7UFK6 22-513)
T2 sequence (A9XWS2 27-513): T1 sequence (A9XWS2 27-513)
Particulars: -60 mV; cRNA ratio 1:5; response too small to quantify.

Assay [3] concerns the target T1, 5:1 Asu-unc-38:Asu-unc-29 receptor, putative (Asu-UNC-38)3(Asu-UNC-29)2, N-subtype nAChR. The settings on record: -60 mV; cRNA ratio 5:1; response too small to quantify.
Assay [4] concerns the target T2, 1:5 Asu-unc-38:Asu-unc-29 receptor, putative (Asu-UNC-38)2(Asu-UNC-29)3, L-subtype nAChR. The text has this: two-electrode voltage clamp, Xenopus oocytes on 1:5 Asu-unc-38:Asu-unc-29 receptor, putative (Asu-UNC-38)2(Asu-UNC-29)3, L-subtype nAChR

As a reminder, the pEC50 is the negative decadic logarithm of the EC50, by convention in mol/L. `CN1CCCN=C1/C=C/c1cccc(O)c1` [oxantel] had a pEC50 in assay [1] of 5.39. In addition, the “two-electrode voltage clamp, Xenopus oocytes” value in assay [2] is “but gave a negligible response to oxantel”.
With `CN1CCCN=C1/C=C/c1cccs1` [pyrantel], in assay [3], the “two-electrode voltage clamp, Xenopus oocytes” value is given as “but gave very little response to pyrantel”. Besides, in assay [4], the pEC50 was 6.40.
